One compound from patent US10414713B2, “Fatty acid compound, preparation method therefor and use therefor” (SHANGHAI INSTITUTE OF MATERIA MEDICA, CHINESE ACADEMY OF …, priority 2016, dated 2019) can be followed below.

Structures are written as SMILES.

The assay deals with primary hepatocytes of C57bl/6j mice. In words: Glucose output in primary hepatocytes of C57bl/6j mice. Type of assay: cell-based. The following applies: Hepatocyte, 6 hours, mouse primary hepatocytes, corrected by protein concentration, FIG. 3, read-out: gluconeogenesis inhibition (glucose output) relative to the negative control. The method, then: 2. To Investigate the Effect of Compounds on Glucose Output in Primary Hepatocytes of C57bl/6j Mice.
(1) Test purpose: To test whether the fatty acid compounds can inhibit hepatocyte glucose output on primary hepatocytes of C57bl/6j mice.
(2) Experimental principle: Small molecule compounds act on mouse primary hepatocytes, inhibit gluconeogenesis, and then affect the glucose output of cells into the medium. The effect of compounds on gluconeogenesis is evaluated by detecting the glucose concentration in the medium after the treatment of different compounds.
(3) Detection reagent: The glucose detection kit was purchased from Shanghai Mind Bioengineering Co., Ltd.
1) the primary hepatocytes of C57bl/6j mice were isolated and inoculated into a 24-well plate at a density of 300,000 per mL. After grew adhering to the wall for 6 hours, they were replaced on serumfree highsugar medium for 12 hours. Compounds 1 to 30 prepared by the present invention (in 1‰ DMSO, 50 μM) were separately added to treat for 6 hours (1‰ DMSO as a negative control). The medium was gently mixed, 50 μL of supernatant was taken from every well, and glucose concentration was measured by a glucose oxidase assay kit.
2) The medium was discarded. The cells was washed with PBS, spin dried, added 200 μL of 250 mM sodium hydroxide solution. […] The protein concentration was determined using coomassie blue staining. […]

For the compound `CCC(C)(CCCCCCC=CCCCCCCCC(C)(CC)C(=O)O)C(=O)O` (stereo not shown) [Compound 20], the inhibition at 50 µM is more than 50%.

One may read the inhibition as the drop in the measured response relative to a control, in per cent.
